Measured values from PubChem BioAssay (NCI).
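GI50 marks 50% less growth. The concentration for full growth arrest is given as TGI.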

Tests used:
Experiment in all cases: growth of human tumour cells (NCI), 384-well format
[1] = test system: ACHN renal
[2] = test system: EKVX NSCLC
[3] = test system: HCT-15 colon
[4] = test system: HOP-62 NSCLC
[5] = test system: K-562 leukemia
[6] = test system: MALME-3M melanoma
[7] = test system: NCI/ADR-RES ovarian
[8] = test system: RXF 393 renal
[9] = test system: SF-539 CNS
[10] = test system: SNB-19 CNS
[11] = test system: SNB-75 CNS
[12] = test system: SW-620 colon
[13] = test system: UACC-257 melanoma

## NC(=O)c1nc(-c2c(F)cccc2Cl)oc1Nc1ccc(C(=O)N2CCOCC2)cc1
[1]
  GI50: 0.779 µM
  TGI: 3.6 µM
[2]
  GI50: 1.96 µM
  TGI: 7.57 µM
[3]
  GI50: 2.41 µM
  TGI: 19 µM
[4]
  GI50: 2.41 µM
  TGI: 19.6 µM
[5]
  GI50: 1.62 µM
  TGI: 15 µM
[6]
  GI50: 4.68 µM
  TGI: 12.3 µM
[7]
  GI50: 2.46 µM
  TGI: 7.79 µM
[8]
  GI50: 1.1 µM
  TGI: 3.3 µM
[9]
  GI50: 1.45 µM
  TGI: 7.64 µM
[10]
  GI50: 3.46 µM
  TGI: 24.9 µM
[11]
  GI50: 1.78 µM
  TGI: 4.24 µM
[12]
  GI50: 0.48 µM
  TGI: 3.37 µM
[13]
  GI50: 23.1 µM
  TGI: > 54.8 µM
